Consider two compounds from paper PMC9861803, “A New ABCB1 Inhibitor Enhances the Anticancer Effect of Doxorubicin in Both In Vitro and In Vivo Models of NSCLC” (International Journal of Molecular Sciences, 2023).

Data set [1] addresses T1, breast cancer resistant protein (BCRP, ABCG2) (Homo sapiens, UniProt Q9UNQ0).
T1 sequence (Q9UNQ0 1-655): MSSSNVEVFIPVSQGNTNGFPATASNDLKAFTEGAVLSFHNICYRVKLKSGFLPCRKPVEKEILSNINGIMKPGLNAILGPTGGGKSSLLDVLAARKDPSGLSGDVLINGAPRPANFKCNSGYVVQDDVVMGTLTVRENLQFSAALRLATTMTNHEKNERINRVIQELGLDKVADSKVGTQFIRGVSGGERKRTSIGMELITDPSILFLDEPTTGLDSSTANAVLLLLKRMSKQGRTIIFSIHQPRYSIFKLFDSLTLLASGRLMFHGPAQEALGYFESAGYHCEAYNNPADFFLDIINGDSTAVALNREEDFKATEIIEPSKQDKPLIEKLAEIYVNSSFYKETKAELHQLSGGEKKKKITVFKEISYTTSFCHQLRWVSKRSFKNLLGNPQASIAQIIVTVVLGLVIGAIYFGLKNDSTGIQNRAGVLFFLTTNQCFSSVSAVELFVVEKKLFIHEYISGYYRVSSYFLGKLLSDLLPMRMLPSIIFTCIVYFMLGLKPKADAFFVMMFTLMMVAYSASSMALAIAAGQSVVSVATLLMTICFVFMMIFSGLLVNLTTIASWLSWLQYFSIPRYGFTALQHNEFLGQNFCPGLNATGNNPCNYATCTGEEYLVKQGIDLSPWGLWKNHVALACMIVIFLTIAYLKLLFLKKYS
Kind of data set: Hoechst […] accumulation assay in H460 cells. In kind it is cell-based.

The next data set addresses ABCA1 (Mus musculus, UniProt P41233). Kind of data set: radiolabelled cholesterol efflux to apoA-I from murine peritoneal macrophages. In kind it is cell-based.

ABCA1, sequence (P41233 whole entry): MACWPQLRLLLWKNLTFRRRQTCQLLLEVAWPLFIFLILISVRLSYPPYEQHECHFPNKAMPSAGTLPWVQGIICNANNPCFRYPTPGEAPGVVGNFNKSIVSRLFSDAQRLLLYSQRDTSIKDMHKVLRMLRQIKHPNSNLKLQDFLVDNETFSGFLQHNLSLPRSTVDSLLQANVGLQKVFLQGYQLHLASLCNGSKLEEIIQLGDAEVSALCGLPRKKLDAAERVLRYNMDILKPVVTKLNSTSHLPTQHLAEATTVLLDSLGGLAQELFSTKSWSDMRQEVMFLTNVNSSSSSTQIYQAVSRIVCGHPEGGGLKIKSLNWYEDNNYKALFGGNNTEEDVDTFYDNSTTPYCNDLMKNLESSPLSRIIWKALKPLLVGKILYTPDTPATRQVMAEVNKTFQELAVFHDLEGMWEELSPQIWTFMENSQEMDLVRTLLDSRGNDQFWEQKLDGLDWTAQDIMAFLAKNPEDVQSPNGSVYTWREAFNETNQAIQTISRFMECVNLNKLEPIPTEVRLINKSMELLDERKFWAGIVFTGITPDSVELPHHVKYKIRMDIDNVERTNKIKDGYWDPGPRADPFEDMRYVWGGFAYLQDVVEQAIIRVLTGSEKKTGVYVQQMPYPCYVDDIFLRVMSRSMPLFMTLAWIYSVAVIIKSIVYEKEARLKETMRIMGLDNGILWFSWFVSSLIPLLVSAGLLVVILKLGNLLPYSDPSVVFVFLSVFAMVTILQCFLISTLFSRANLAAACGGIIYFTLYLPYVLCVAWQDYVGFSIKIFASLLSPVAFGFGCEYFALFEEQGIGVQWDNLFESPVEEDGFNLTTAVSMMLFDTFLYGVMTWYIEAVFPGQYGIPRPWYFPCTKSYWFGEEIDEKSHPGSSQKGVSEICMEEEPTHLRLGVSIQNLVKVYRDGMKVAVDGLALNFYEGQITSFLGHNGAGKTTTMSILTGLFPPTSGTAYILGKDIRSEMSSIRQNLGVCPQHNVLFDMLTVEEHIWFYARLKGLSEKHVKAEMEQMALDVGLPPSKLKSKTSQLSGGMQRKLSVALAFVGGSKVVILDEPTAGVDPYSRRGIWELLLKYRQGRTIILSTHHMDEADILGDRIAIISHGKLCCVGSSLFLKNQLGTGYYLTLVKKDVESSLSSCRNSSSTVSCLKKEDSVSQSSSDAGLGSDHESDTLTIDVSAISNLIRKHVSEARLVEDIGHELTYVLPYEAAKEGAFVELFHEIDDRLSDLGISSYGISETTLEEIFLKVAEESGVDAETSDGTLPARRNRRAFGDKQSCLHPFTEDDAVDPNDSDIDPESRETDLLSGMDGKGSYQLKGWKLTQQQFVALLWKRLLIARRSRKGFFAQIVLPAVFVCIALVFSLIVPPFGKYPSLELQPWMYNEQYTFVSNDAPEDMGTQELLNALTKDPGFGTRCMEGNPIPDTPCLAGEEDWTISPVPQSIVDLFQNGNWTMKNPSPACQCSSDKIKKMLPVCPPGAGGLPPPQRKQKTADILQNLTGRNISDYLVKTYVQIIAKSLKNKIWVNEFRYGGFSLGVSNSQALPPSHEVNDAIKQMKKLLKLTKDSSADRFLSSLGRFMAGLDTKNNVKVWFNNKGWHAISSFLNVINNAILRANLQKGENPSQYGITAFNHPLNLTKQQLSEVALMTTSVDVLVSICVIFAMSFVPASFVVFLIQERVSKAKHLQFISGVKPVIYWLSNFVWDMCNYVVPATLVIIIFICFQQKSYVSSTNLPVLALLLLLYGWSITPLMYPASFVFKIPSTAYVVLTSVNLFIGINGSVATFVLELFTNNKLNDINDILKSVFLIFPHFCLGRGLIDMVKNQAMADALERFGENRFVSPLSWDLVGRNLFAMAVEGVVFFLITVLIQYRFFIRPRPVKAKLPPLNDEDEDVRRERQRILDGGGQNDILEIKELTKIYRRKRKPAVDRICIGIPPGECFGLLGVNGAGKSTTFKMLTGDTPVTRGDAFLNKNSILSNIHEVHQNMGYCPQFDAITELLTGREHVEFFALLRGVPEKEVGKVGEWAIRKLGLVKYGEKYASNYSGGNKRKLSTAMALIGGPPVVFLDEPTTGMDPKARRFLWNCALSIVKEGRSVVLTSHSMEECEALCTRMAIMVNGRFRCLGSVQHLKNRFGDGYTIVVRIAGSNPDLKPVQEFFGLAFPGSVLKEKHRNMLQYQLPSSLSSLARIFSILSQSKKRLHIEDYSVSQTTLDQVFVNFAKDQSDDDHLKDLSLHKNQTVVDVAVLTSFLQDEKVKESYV

As for `COc1ccc2c3c([nH]c2c1)[C@H](C=C(C)C)N1C(=O)[C@@H]2CCCN2C(=O)[C@@H]1C3` [fumetrimorgin C], the “Hoechst 33342 accumulation assay in H460 cells” value in data set [1] was “the reference compound fumetrimorgin C, as expected, significantly inhibited the amount of Hoechst 33342-caused intracellular fluorescence”. Consider `CC(C)(Sc1cc(C(C)(C)C)c(O)c(C(C)(C)C)c1)Sc1cc(C(C)(C)C)c(O)c(C(C)(C)C)c1` [probucol], for which the “radiolabelled cholesterol efflux to apoA-I from murine peritoneal macrophages” value at ABCA1 is “probucol, the lead compound, significantly inhibited in a dose-dependent manner the ABCA1 activity”.
